The test system of assay [1] is ENR+CD organoids (ISC to Paneth cell differentiation). The experiment in a line: Primary screen: CCh-stimulated lysozyme secretion LYZ.S, 2.5-D 384-well ENR+CD organoid differentiation. The note with it: primary screen. The format is cell-based, mouse. The text has this: (§1) High-throughput screening.
Another assay deals with ENR+CD organoids. The experiment in a line: Primary screen: ATP (CellTiter-Glo 3D, CTG) cell number/viability, 2.5-D 384-well ENR+CD organoids.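 On all read-outs here: compounds given at plating and again on day 3 over a 6-day differentiation from ENR+CV stem-cell-enriched precursors, ATP measured on day 6, plate median as control.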 Conditions: primary screen; for Z.CTG: standard z score. On the technique in general: ATP-based viability assays read luminescence as a measure of living cells.
Assay [2] relates to ENR+CD organoids (ISC to Paneth cell differentiation). The experiment in a line: Primary screen: basal (non-stimulated) lysozyme secretion LYZ.NS, 2.5-D 384-well ENR+CD organoid differentiation. The format is cell-based, mouse. The note with it: primary screen; for Z.LYZ.NS: standard z score.
Source text: as §1

[3] abbreviates: dose 0.08 uM, FC vs plate median.
Where [4] appears, read: dose 0.40 uM, FC vs plate median.
The mark [5] stands for this setting: dose 2.00 uM, FC vs plate median.
Setting [6] is: dose 10.00 uM, FC vs plate median.
[7] abbreviates: dose 0.08 uM, FC relative to plate median.
The mark [8] stands for this setting: dose 0.40 uM, FC relative to plate median.
[9] abbreviates: dose 2.00 uM, FC relative to plate median.
Setting [10] is: dose 10.00 uM, FC relative to plate median.

Four compounds from US20220323406A1, “METHODS AND COMPOSITIONS FOR DIFFERENTIATING STEM CELLS” (Massachusetts Institute of Technology, priority 2019, published 2022) can be followed below.

As to `Cc1sc2c(c1C)C(c1ccc(Cl)cc1)=N[C@@H](CC(=O)Nc1ccc(O)cc1)c1nnc(C)n1-2` [OTX015], the Dose.FC.LYZ.S in assay [1] (setting [3]) was −0.279 log2 fold change; in assay [1] (setting [4]), −0.350 log2 fold change; in assay [1] (setting [5]), −0.350 log2 fold change; in assay [1] (setting [6]), −0.362 log2 fold change. For the same compound, the Dose.FC.CTG in the assay with ENR+CD organoids (setting [3]) was −0.038 log2 fold change; with ENR+CD organoids (setting [4]) it was −0.398 log2 fold change; in the assay on ENR+CD organoids (setting [5]) it was −0.686 log2 fold change; with ENR+CD organoids (setting [6]), −0.908 log2 fold change. Further, the Z.LYZ.NS is on record as −1.726 in assay [2] (dose 0.08 uM), −2.317 in assay [2] (dose 0.40 uM), −2.082 in assay [2] (dose 2.00 uM) and −2.225 in assay [2] (dose 10.00 uM). Also, the Dose.FC.LYZ.NS in assay [2] (setting [3]) is −0.198 log2 fold change; in assay [2] (setting [4]), −0.266 log2 fold change; in assay [2] (setting [5]), −0.239 log2 fold change; in assay [2] (setting [6]), −0.256 log2 fold change.

As to `Cc1ccc(C(=O)N(CCCN)[C@@H](c2oc3cc(Cl)ccc3c(=O)c2Cc2ccccc2)C(C)C)cc1` [SB743921], the Dose.FC.LYZ.S in assay [1] (setting [7]) was −0.321 log2 fold change; in assay [1] (setting [8]), −0.329 log2 fold change; in assay [1] (setting [9]) it was −0.340 log2 fold change; in assay [1] (setting [10]), −0.350 log2 fold change. In addition, the Dose.FC.CTG is reported as −0.485 log2 fold change in the assay with ENR+CD organoids (setting [7]), −0.777 log2 fold change in the assay with ENR+CD organoids (setting [8]), −0.485 log2 fold change in the assay with ENR+CD organoids (setting [9]) and −0.542 log2 fold change in the assay on ENR+CD organoids (setting [10]). Besides, the Z.CTG with ENR+CD organoids (dose 0.08 uM) was −1.159; with ENR+CD organoids (dose 0.40 uM), −1.855; with ENR+CD organoids (dose 2.00 uM), −1.158; with ENR+CD organoids (dose 10.00 uM), −1.294. Moreover, the Dose.FC.LYZ.NS is −0.232 log2 fold change in assay [2] (setting [7]), −0.247 log2 fold change in assay [2] (setting [8]), −0.264 log2 fold change in assay [2] (setting [9]) and −0.238 log2 fold change in assay [2] (setting [10]). Further, the Z.LYZ.NS in assay [2] (dose 0.08 uM) was −2.017; in assay [2] (dose 0.40 uM), −2.148; in assay [2] (dose 2.00 uM), −2.297; in assay [2] (dose 10.00 uM), −2.068.

In the case of `O=C(C[S+]([O-])Cc1ccco1)NC/C=C\COc1cc(CN2CCCCC2)ccn1` (centres unmarked) [Lafutidine], the “Dose.FC.LYZ.S (log2 fold change)” value in assay [1] (dose 0.08 uM) was 0.052; in assay [1] (dose 0.40 uM), 0.078; in assay [1] (dose 2.00 uM), 0.076; in assay [1] (dose 10.00 uM) it was −0.014. Also, the “Dose.FC.CTG (log2 fold change)” value is reported as 0.152 in the assay with ENR+CD organoids (dose 0.08 uM), 0.145 in the assay on ENR+CD organoids (dose 0.40 uM), 0.138 in the assay with ENR+CD organoids (dose 2.00 uM) and −0.098 in the assay with ENR+CD organoids (dose 10.00 uM). The “Dose.FC.LYZ.NS (log2 fold change)” value in assay [2] (dose 0.08 uM) is listed as 0.043; in assay [2] (dose 0.40 uM), 0.007; in assay [2] (dose 2.00 uM), 0.037; in assay [2] (dose 10.00 uM), 0.075. Further, the “Z.LYZ.NS (standard z score)” value in assay [2] (dose 0.08 uM) is 0.372; in assay [2] (dose 0.40 uM) it was 0.059; in assay [2] (dose 2.00 uM) it was 0.320; in assay [2] (dose 10.00 uM), 0.657.

For `OC(CNCC(O)C1CCc2cc(F)ccc2O1)C1CCc2cc(F)ccc2O1` (centres unmarked) [Nebivolol], the Dose.FC.LYZ.S came out at 0.194 log2 fold change in assay [1] (setting [3]), 0.282 log2 fold change in assay [1] (setting [4]), 0.069 log2 fold change in assay [1] (setting [5]) and 0.105 log2 fold change in assay [1] (setting [6]). Also, the Dose.FC.CTG with ENR+CD organoids (setting [3]) is on record as 0.388 log2 fold change; in the assay with ENR+CD organoids (setting [4]) it was 0.220 log2 fold change; with ENR+CD organoids (setting [5]) it was 0.312 log2 fold change; in the assay on ENR+CD organoids (setting [6]) it was 0.209 log2 fold change. Besides, the Z.LYZ.NS came to 1.525 in assay [2] (dose 0.08 uM), 2.776 in assay [2] (dose 0.40 uM), 0.960 in assay [2] (dose 2.00 uM) and 0.836 in assay [2] (dose 10.00 uM). The Dose.FC.LYZ.NS stood at 0.175 log2 fold change in assay [2] (setting [3]), 0.319 log2 fold change in assay [2] (setting [4]), 0.110 log2 fold change in assay [2] (setting [5]) and 0.096 log2 fold change in assay [2] (setting [6]).
